Assay results as given in patent US10213516B2, “Labelled carboxylic acids and their uses in molecular imaging” (Imperial Innovations Limited, priority 2013, dated 2019).
Entries after “also recorded” stand apart in the source; their conditions may differ.

Key:
[1] = tested on: EMT6 murine breast cancer cells; assay: [18F]FDMP uptake in cells (gamma counting); format: cell-based
Description: (§1) EMT6 murine breast cancer cells (LGC Standards) were grown in Waymouth's medium (Life Technologies), with U87 human glioma cells (LGC Standards) grown in DMEM medium (Life Technologies). DU145 (kind donation from Dr. Almut Schulze, CRUK London Research Institute) and BT474 (LGC Standards) were grown in RPMI (Life Technologies). All media were supplemented with 2.5 mL penicillin/streptomycin (10,000 IU·mL^−1/10,000 […]) and 2 mM L-glutamine (Life Technologies). Waymouth's medium contained 15% fetal calf serum (FCS), with 10% FCS added to DMEM and RPMI. All cells were propagated at 37° C. in a humidified atmosphere containing 5% CO2.
EMT6 cells (2×10^5) were plated into 6-well plates overnight prior to analysis. On the day of the experiment fresh growth medium containing 0.74 MBq [^18F]FDMP were added to individual wells (1 mL/well). Cell uptake was measured over 60 min post radiotracer addition. Plates were placed on ice, washed 3 times with ice-cold PBS and lysed in RIPA buffer (Thermo Fisher Scientific Inc.; 1 mL, 10 min). Cell lysates were transferred to counting tubes and decay-corrected radioactivity was determined on a gamma counter (Cobra II Auto-Gamma counter, Packard Biosciences Co.). Aliquots were snap-frozen and used for protein determination following radioactive decay using a BCA 96-well plate assay (Thermo Fisher Scientific Inc.). In addition, 10 μL standards from a 0.74 MBq/mL stock solution were counted to quantitate % radiotracer uptake. For carnitine treatment, cells were incubated with 10 μM L-carnitine for the duration of the uptake time course.

[2] = tested on: EMT6 murine breast adenocarcinoma xenografts; assay: Biodistribution time course in EMT6 tumour-bearing BALB/c mice; format: in vivo
Description: (§2) All animal experiments were performed by licensed investigators in accordance with the United Kingdom Home Office Guidance on the Operation of the Animal (Scientific Procedures) Act 1986 and within the published guidelines for the welfare and use of animals in cancer research.^22 EMT6 tumour cells (2×10^6; 100 μL PBS) were injected subcutaneously on the back of female BALB/c mice (aged 6-8 weeks; Charles River) and grown to ˜150 mm^3. U87 tumours were grown following subcutaneous injection of 5×10^6 cells (100 μL PBS) on the back of female BALB/c nude mice (aged 6-8 weeks; Charles River), with BT474 tumours induced following injection of 5×10^6 cells in matrigel (BD Biosciences; 1:1 ratio PBS-to-matrigel; 100 μL total). Tumour dimensions were measured periodically using a caliper and tumour volumes were calculated by the equation: volume=(π/6)×a×b×c, where a, b, and c represent three orthogonal axes of the tumour. Inflammation was performed in an aseptic inflammation model as previously described.^23
(§3) [^18F]FDMP (˜3.7 MBq) was injected via the tail vein of anaesthetized EMT6 tumour-bearing BALB/c mice. The mice were maintained under anesthesia and sacrificed by exsanguination via cardiac puncture at 2, 15, 30, 60, 120 or 180 min post radiotracer injection and tissues harvested. Biodistribution studies with BT474 and U87 tumour-bearing nude mice were performed 60 min post [^18F]FDMP injection. Tissue radioactivity was determined on a gamma counter (Cobra II Auto-Gamma counter, Packard Biosciences Co.) and decay corrected. 10 μL standards from a 1:100 dilution of the stock activity were also counted for data normalization. Plasma was obtained from terminal blood samples following centrifugation (14000 g, 5 min). Data were expressed as percent injected dose per gram of tissue (% ID/g).

BT474 tumours = assay: Biodistribution in BT474 tumour-bearing nude mice; format: in vivo, BALB/c nude mice; conditions: 60 min post injection
Description: as §2, with “Inflammation was performed in an aseptic inflammation model as previously described.^23” left out
[^18F]FDMP (˜3.7 MBq) was injected via the tail vein of anaesthetized EMT6 tumour-bearing BALB/c mice. […] Tissue radioactivity was determined on a gamma counter (Cobra II Auto-Gamma counter, Packard Biosciences Co.) and decay corrected. 10 μL standards from a 1:100 dilution of the stock activity were also counted for data normalization. […] Data were expressed as percent injected dose per gram of tissue (% ID/g).

[3] = tested on: U87 glioma human xenografts; assay: Biodistribution in U87 human glioblastoma-bearing BALB/c nude mice; format: in vivo; conditions: for Tumour/brain ratio: U87 glioma, 60 min post injection; for Tumour uptake: U87 xenografts, 60 min post-radiotracer injection
Description: as §2, §3

[4] = In vivo radiotracer stability and metabolism (radio-HPLC of tissue extracts); parameters: species or system BALB/c non-tumour-bearing mice
Description: Radiolabeled metabolites from plasma and tissues were quantified using an adapted method.^24 BALB/c non-tumour-bearing mice under general anesthesia (2.5% isofluorane; non-recovery anesthesia) were administered a bolus i.v. injection of [^18F]FDMP (˜7.4 MBq), and sacrificed by exsanguination via cardiac puncture 30 min post radiotracer injection. Heart, urine and liver samples were immediately snap-frozen in liquid nitrogen. Aliquots of heparinized blood were rapidly centrifuged (14000 g, 5 min, 4° C.) to obtain plasma. Plasma samples were subsequently snap-frozen in liquid nitrogen and kept on dry ice prior to analysis. For analysis, samples were thawed and kept at 4° C. immediately before use. To ice cold plasma and urine (200 μL) was added ice-cold methanol (600 μL) and the resulting suspension centrifuged (14000 g; 4° C.; 3 min). 300 μL of the resulting supernatant was added to 1 mL ice cold mobile phase. […] Samples were analyzed on an Agilent 1100 series HPLC system (Agilent Technologies, Santa Clara, Calif., USA), using an isocratic method of 10% MeOH in an ion pair buffer prepared as follows and a μBondapak C18 semi preparative HPLC column (Waters, Milford, Mass., USA; […]). […]

EMT6 tumours = assay: PET imaging of EMT6 tumour-bearing mice; format: in vivo; conditions: 60 min
Description: All animal experiments were performed by licensed investigators in accordance with the United Kingdom Home Office Guidance on the Operation of the Animal (Scientific Procedures) Act 1986 and within the published guidelines for the welfare and use of animals in cancer research.^22 EMT6 tumour cells (2×10^6; 100 μL PBS) were injected subcutaneously on the back of female BALB/c mice (aged 6-8 weeks; Charles River) and grown to ˜150 mm^3. […] Tumour dimensions were measured periodically using a caliper and tumour volumes were calculated by the equation: volume=(π/6)×a×b×c, where a, b, and c represent three orthogonal axes of the tumour. […]
[^18F]FDMP imaging scans were carried out on a GENISYS^4 small animal PET scanner (Sofie Biosciences), following a bolus i.v. injection of ˜1.85 MBq of the radiotracer into tumour-bearing mice. […] Tumour radioactivity were normalized to that of the whole body to obtain the normalized uptake value (NUV) to permit comparison of data obtained using the two scanners.
Dynamic [^18F]FDMP imaging scans were carried outa dedicated small animal PET scanner (Siemens Inveon PET module, Siemens Medical Solutions USA, Inc., Malvern, Pa., USA) following a bolus i.v. injection of ˜3.7 MBq of the radiotracer into tumour-bearing mice. […] The count densities were averaged for all VOIs at each time point to obtain a time versus radioactivity curve (TAC). […]

[5] = tested on: DU145 prostate adenocarcinoma tumours; assay: PET imaging of DU145 tumour-bearing mice; format: in vivo; conditions: for Tumour visibility by PET: DU145, 50-60 min static scans; for Tumour to whole body normalized uptake: 50-60 min static scans
Description: [^18F]FDMP imaging scans were carried out on a GENISYS^4 small animal PET scanner (Sofie Biosciences), following a bolus i.v. injection of ˜1.85 MBq of the radiotracer into tumour-bearing mice. Static scans were acquired for 10 min and images were reconstructed using maximum-likelihood expectation maximization. In a different cohort of mice, dynamic PET imaging was performed on a Siemens Inveon PET module, (Siemens Medical Solutions USA) as described in supplementary materials. Dynamic PET imaging was performed for the [^18F]FDMP and [^18F]FDG comparison study in EMT6 tumour-bearing mice. Static scans on the GENISYS^4 were used for all other experiments. Siemens Inveon Research Workplace software was used for visualization of radiotracer uptake in the tumour and to define the three-dimensional volumes of interest (VOI). Tumour radioactivity were normalized to that of the whole body to obtain the normalized uptake value (NUV) to permit comparison of data obtained using the two scanners.

[6] = tested on: Turpentine-induced inflammatory tissue; assay: Aseptic inflammation model biodistribution; format: in vivo; conditions: for Inflammation-to-muscle ratio: in vivo; for Accumulation in chemically-induced inflammatory tissues: turpentine-treated muscle
Description: as §2, §3

[7] = PET/CT imaging in healthy BALB/c mice; format: in vivo
[8] = tested on: orthotopic U87 brain tumour; assay: PET imaging in orthotopic U87 brain tumour model; format: in vivo; conditions: 15-30 min and 45-60 min post radiotracer injection
Description: FIG. 14. [^18F]FDMP and [^18F]FDG uptake in an orthotopic U87 brain tumour model. PET images were acquired 15-30 min and 45-60 min post radiotracer injection 6 weeks after intracranial injection of U87 glioma cells. White arrows indicate the tumour.
[^18F]FDMP and [^18F]FDG uptake in an orthotopic U87 brain tumour model was analysed (FIG. 14). […] The background is very low, so good staining is achieved.

tumour = conditions: cited from earlier work
BT474 cells = assay: Metabolism experiments in cells (LC-MS); format: cell-based, human
Description: as §1
BT474 cells were seeded in 12-well plates at 2×10^5 cells per well. For measurement of FDMP uptake, the media was replaced with media supplemented with 500 μM FDMP and incubated for the indicated times. All media samples were harvested at the same time and immediately diluted into ice-cold extraction solution of methanol, acetonitrile, and water (5:3:2) (All chemicals were purchased from Fisher Scientific and were LC-MS grade). Cell numbers were assumed to be identical. The amount of extraction solution added to each well was determined by cell counts obtained from a counting plate run in parallel (1 mL/2×10^6 cells). Extracts were vortexed for 10 min at 4° C. and then centrifuged at 16,500 g at 4° C. for 15 min. Supernatants were removed and analyzed by LC-MS (ZIC-pHelic HPLC columns and Exactive Plus Orbitrap MS (ThermoScientific). Data was analyzed using Xcalibur and LCQuan software (ThermoScientific). FDMP and FAC standards were run in isolation for quantification.

Molecule: CC(C)(C[18F])C(=O)O [[^18F]FDMP, [^18F]3-fluoro-2,2-dimethylpropanoic acid]
- Uptake into EMT6 tumour cells ([1]; 30 min of incubation): 1.40±0.10 % radioactivity/mg protein
- Uptake into EMT6 tumour cells ([1]; 60 min post radiotracer addition (plateau)): 1.47±0.04 % radioactivity/mg protein
- Uptake increase compared to control cells ([1]; incubation with 10 μM L-carnitine): 44%
- Bone uptake ([2]; 2, 15, 30 and 60 minutes after administration): low bone uptake
- Tumour to blood ratio ([2]; EMT6, after 60 minutes): up to 2.32
- Tumour-associated radioactivity ([2]; EMT6 tumour, 30 min post injection): 9.3±1.0 % ID/g
- Tumour-associated radioactivity ([2]; EMT6 tumour, 120 min post radiotracer injection): 9.8±2.0 % ID/g
- Tumour-associated radioactivity ([2]; EMT6 tumour, 180 min): 6.3±0.7 % ID/g
- Reduction of tumour-associated radioactivity ([2]; EMT6 tumour, by 180 min): 36%
- Tumour radioactivity ([2]; EMT6 tumours, 60 min post injection): 9.1±0.5 % ID/g
- Blood-brain barrier passage ([2]; gamma counting and dynamic PET): able to cross the blood-brain barrier; also recorded: passes the blood brain barrier
- Tumour radioactivity (BT474 tumours): 7.6±1.2 % ID/g
- Tumour/brain ratio [3]: 2.5
- Tumour uptake [3]: 9.35±1.0 % ID/g
- Uptake in the normal brain ([3]; compared with [18F]FDG): significantly lower than [^18F]FDG
- Stability in plasma, liver and heart by radioHPLC ([4]; 30 min post injection): no degradation; also recorded: only peaks of the parent compound detectable
- Parent peak fraction in urine ([4]; urine, 30 min): 61.8±6.6 % radioactivity
- Tumour to whole body normalized uptake (EMT6 tumours): 1.15±0.13 NUV
- Tumour visibility by PET [5]: clearly discernable
- Tumour uptake higher than [18F]FDG ([5]; DU145 prostate tumours): 54%
- Tumour to whole body normalized uptake ([5]; DU145 prostate tumours): 0.73±0.07 NUV
- Inflammation-to-muscle ratio [6]: 2.36
- Accumulation in chemically-induced inflammatory tissues [6]: 6.53±1.13 % ID/g
- Defluorination of the tracer (retention in bones) [7]: no defluorination
- Tumour staining in PET images [8]: good staining of the U87 tumour was visible

Molecule: CC([18F])C(=O)O (centres unmarked) [[^18F]FPA, [^18F]2-fluoropropionic acid]
- Tumour-to-brain ratio (tumour; 60 minutes post-injection): 1.27
- Tumour to blood ratio (tumour; Table 1 in reference 28): 1.03

Molecule: O=C(O)CF [[^19F]FAC, [^19F]fluroacetate, reference compound]
- Intracellular metabolites observed by LC-MS (BT474 cells; 500 μM in medium, BT474 cells): only the parent compound and [^19F]fluorocitrate were observed
- Effect on intracellular metabolite pools (citrate, cis-aconitate, alpha-ketoglutarate) (BT474 cells; BT474 cells, LC-MS): significant increase in citrate and cis-aconitate, together with significant decrease in alpha-ketoglutarate

Molecule: CC(C)(CF)C(=O)O [[^19F]FDMP]
- Uptake by BT474 cells detected by mass spectrometry (BT474 cells; 500 μM in medium): rapidly taken up
- Intracellular metabolites observed by LC-MS (BT474 cells; 500 μM in medium, BT474 cells): no other metabolites were observed

Molecule: [^18F]2-fluoro-2-deoxyglucose [[^18F]FDG, reference compound]
- Tumour/brain ratio [3]: 1.3
- Tumour uptake [3]: 11.0±1.1 % ID/g
- Tumour to whole body normalized uptake (EMT6 tumours): 1.02±0.16 NUV
- Tumour visibility by PET [5]: not visible above background
- Tumour to whole body normalized uptake ([5]; DU145 prostate tumours): 0.47±0.09 NUV
- Inflammation-to-muscle ratio [6]: 2.66
- Accumulation in chemically-induced inflammatory tissues [6]: 5.86±0.68 % ID/g
